Results taken from PubChem BioAssay AID192 (DTP/NCI, 2004).
Several values for one entry are separate records, joined by “and”; a condition that tells them apart may be missing. Equal values may be shown once. Toxic doses and inconclusive results are not listed.

Test system: BDF1 mice, B16 melanoma ip, median survival T/C
Test: NCI In Vivo Anticancer Drug Screen. Data for tumor model B16 Melanoma (intraperitoneal) in B6D2F1 (BDF1) mice
Conditions: endpoint: median survival time, higher = longer survival
Procedure, shortened: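 Values are ratios of treated (T) to vehicle-control (C) measurements of survival or tumor size in tumor-bearing mice.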

[1] = dose: 12.5 mg/kg/injection, schedule: Q01DX009 (ip), vehicle: Klucel (hydroxypropylcellulose) (HPC)
[2] = dose: 25.0 mg/kg/injection, schedule: Q01DX009 (ip), vehicle: Klucel (hydroxypropylcellulose) (HPC)
[3] = dose: 50.0 mg/kg/injection, schedule: Q01DX009 (ip), vehicle: Klucel (hydroxypropylcellulose) (HPC)
[4] = dose: 100.0 mg/kg/injection, schedule: Q01DX009 (ip), vehicle: saline with Tween-80
[5] = dose: 200.0 mg/kg/injection, schedule: Q01DX009 (ip), vehicle: saline with Tween-80
[6] = dose: 400.0 mg/kg/injection, schedule: Q01DX009 (ip), vehicle: saline with Tween-80
[7] = dose: 6.25 mg/kg/injection, schedule: Q01DX009 (ip), vehicle: saline

Question: How did the T/C [1] turn out when `COc1ccccc1N1C(=O)CSC1=S` was run?
Answer: Its T/C is 95 % of control.

Question: What about the T/C [2] of the same compound?
Answer: Its T/C is 105 % of control.

Question: What about the T/C [3] of the same compound?
Answer: Its T/C is 87 % of control.

Question: And the T/C (dose: 100.0 mg/kg/injection, schedule: Q01DX009 (ip), vehicle: Klucel (hydroxypropylcellulose) (HPC))?
Answer: The T/C was 105 % of control.

Question: For `COC(=O)C1C2CC3c4[nH]c5cc(OC)ccc5c4CCN3CC2CC(OC(=O)c2cc(OC)c(OC)c(OC)c2)C1OC` (stereo unspecified), which T/C (dose: 3.12 mg/kg/injection, schedule: Q01DX009 (ip), vehicle: Klucel (hydroxypropylcellulose) (HPC)) is on record?
Answer: The T/C was 105 % of control.

Question: And the T/C (dose: 6.25 mg/kg/injection, schedule: Q01DX009 (ip), vehicle: Klucel (hydroxypropylcellulose) (HPC))?
Answer: The T/C was 105 % of control.

Question: And the T/C [1]?
Answer: The T/C was 110 % of control.

Question: And the T/C [2]?
Answer: Its T/C is 97 % of control.

Question: What about the T/C [3] of the same compound?
Answer: The T/C was 90 % of control.

Question: What does the source list for `CCCC1CC[N-]CC1.CCCC1CC[N-]CC1.[Br][Pt+2]([Br])([Br])[Br]`?
Answer: T/C (dose: 3.13 mg/kg/injection, schedule: Q01DX009 (ip), vehicle: water): 98 % of control; T/C (dose: 6.25 mg/kg/injection, schedule: Q01DX009 (ip), vehicle: water): 102 % of control; T/C (dose: 12.5 mg/kg/injection, schedule: Q01DX009 (ip), vehicle: water): 97 % of control

Question: For `CCCCn1cnc2c(N)ncnc21`, which T/C [1] is on record?
Answer: Its T/C is 92 % of control.

Question: And the T/C [3]?
Answer: Its T/C is 87 % of control.

Question: What does the source list for `CC1=C(C)C(=O)O[C@@H]([C@](C)(O)[C@]2(O)CC[C@@]3(O)[C@@H]4C[C@H]5O[C@]56CC=CC(=O)[C@]6(C)[C@H]4CC[C@]23C)C1`?
Answer: T/C (dose: 0.78 mg/kg/injection, schedule: Q01DX009 (ip), vehicle: saline): 102 % of control; T/C (dose: 1.56 mg/kg/injection, schedule: Q01DX009 (ip), vehicle: saline): 114 % of control

Question: Which results are given for `NC(=O)NC1CCCC1`?
Answer: T/C [4]: 106 % of control; T/C [5]: 112 % of control; T/C [6]: 102 % of control

Question: Which T/C (dose: 12.5 mg/kg/injection, schedule: Q01DX009 (ip), vehicle: suspension in saline) does the source give for `CC(CNCCN)C[Si](C)(C)C` (stereo unspecified) here?
Answer: The T/C was 99 % of control.

Question: What about the T/C (dose: 25.0 mg/kg/injection, schedule: Q01DX009 (ip), vehicle: suspension in saline) of the same compound?
Answer: The T/C was 96 % of control.

Question: `COc1ccc(NC(=O)Oc2ccc(Cl)c(C)c2)cc1` was tested. Which T/C [5] did it give?
Answer: The T/C was 116 % of control.

Question: What about the T/C [6] of the same compound?
Answer: Its T/C is 105 % of control.

Question: Which T/C [7] does the source give for `O=C1Nc2ccc(Cl)cc2C(c2ccccc2)=NC1O` (stereo unspecified) here?
Answer: Its T/C is 116 % of control.

Question: What about the T/C (dose: 50.0 mg/kg/injection, schedule: Q01DX009 (ip), vehicle: saline) of the same compound?
Answer: The T/C was 95 % of control.

Question: And the T/C (dose: 100.0 mg/kg/injection, schedule: Q01DX009 (ip), vehicle: saline)?
Answer: The T/C was 95 % of control.

Question: And the T/C (dose: 200.0 mg/kg/injection, schedule: Q01DX009 (ip), vehicle: saline)?
Answer: Its T/C is 89 % of control.

Question: And the T/C (dose: 400.0 mg/kg/injection, schedule: Q01DX009 (ip), vehicle: saline)?
Answer: Its T/C is 89 % of control.

Question: `COc1cccc2c1C(=O)c1c(O)c3c(c(O)c1C2=O)CC(O)(/C(C)=N/NC(=O)CCCCC(=O)N/N=C(\C)C1(O)Cc2c(O)c4c(c(O)c2C(OC2CC(N)C(O)C(C)O2)C1)C(=O)c1c(OC)cccc1C4=O)CC3OC1CC(N)C(O)C(C)O1` (stereo unspecified) was tested. Which T/C (dose: 0.38 mg/kg/injection, schedule: Q01DX009 (ip), vehicle: water) did it give?
Answer: Its T/C is 114 % of control.

Question: And the T/C (dose: 1.5 mg/kg/injection, schedule: Q01DX009 (ip), vehicle: water)?
Answer: Its T/C is 177 % of control.

Question: What about the T/C (dose: 3.0 mg/kg/injection, schedule: Q01DX009 (ip), vehicle: water) of the same compound?
Answer: Its T/C is 295 % of control.

Question: What about the T/C (dose: 6.0 mg/kg/injection, schedule: Q01DX009 (ip), vehicle: water) of the same compound?
Answer: Its T/C is 208 % of control.

Question: Which results are given for `Cc1cc(=O)[nH]c(N/N=C/c2ccc(N(C)C)cc2)n1`?
Answer: T/C [4]: 100 % of control; T/C [5]: 95 % of control; T/C [6]: 97 % of control

Question: `CC(C)CNc1ccc(S(=O)(=O)c2ccc(NCC(C)C)c([N+](=O)[O-])c2)cc1[N+](=O)[O-]` was tested. Which T/C (dose: 3.13 mg/kg/injection, schedule: Q01DX009 (ip), vehicle: saline with Tween-80) did it give?
Answer: Its T/C is 100 % of control.

Question: And the T/C (dose: 6.25 mg/kg/injection, schedule: Q01DX009 (ip), vehicle: saline with Tween-80)?
Answer: The T/C was 93 % of control.

Question: What about the T/C [7] of the same compound?
Answer: The T/C was 93 % of control.

Question: What about the T/C (dose: 12.5 mg/kg/injection, schedule: Q01DX009 (ip), vehicle: saline with Tween-80) of the same compound?
Answer: Its T/C is 89 % of control.

Question: What about the T/C (dose: 25.0 mg/kg/injection, schedule: Q01DX009 (ip), vehicle: saline) of the same compound?
Answer: Its T/C is 88 % of control.

Question: Which results are given for `OC(C1CO1)C(O)C1CO1` (stereo unspecified)?
Answer: T/C (dose: 0.12 mg/kg/injection, schedule: Q01DX009 (ip), vehicle: saline): 118 % of control; T/C (dose: 0.13 mg/kg/injection, schedule: Q03HX024 (ip), vehicle: saline): 114 % of control; T/C (dose: 0.25 mg/kg/injection, schedule: Q01DX009 (ip), vehicle: saline): 104 % of control and 107 % of control and 110 % of control; T/C (dose: 0.25 mg/kg/injection, schedule: Q03HX008 (ip), vehicle: saline): 123 % of control; T/C (dose: 0.25 mg/kg/injection, schedule: Q03HX016 (ip), vehicle: saline): 120 % of control; T/C (dose: 0.5 mg/kg/injection, schedule: Q01DX005 (ip), vehicle: saline): 113 % of control; T/C (dose: 0.5 mg/kg/injection, schedule: Q03HX008 (ip), vehicle: saline): 120 % of control; T/C (dose: 1.0 mg/kg/injection, schedule: Q01DX005 (ip), vehicle: saline): 119 % of control; T/C (dose: 1.0 mg/kg/injection, schedule: Q03HX016 (ip), vehicle: saline): 152 % of control; T/C (dose: 1.0 mg/kg/injection, schedule: Q03HX024 (ip), vehicle: saline): 172 % of control; T/C (dose: 2.0 mg/kg/injection, schedule: Q01DX005 (ip), vehicle: saline): 153 % of control; T/C (dose: 2.0 mg/kg/injection, schedule: Q03HX008 (ip), vehicle: saline): 160 % of control; T/C (dose: 2.0 mg/kg/injection, schedule: Q03HX016 (ip), vehicle: saline): 214 % of control; T/C (dose: 4.0 mg/kg/injection, schedule: Q01DX001 (ip), vehicle: saline): 158 % of control; T/C (dose: 4.0 mg/kg/injection, schedule: Q01DX005 (ip), vehicle: saline): 192 % of control; T/C (dose: 4.0 mg/kg/injection, schedule: Q01DX009 (ip), vehicle: saline sonified): 184 % of control; T/C (dose: 4.0 mg/kg/injection, schedule: Q08DX002 (ip), vehicle: saline): 158 % of control; T/C (dose: 8.0 mg/kg/injection, schedule: Q01DX001 (ip), vehicle: saline): 204 % of control; T/C (dose: 8.0 mg/kg/injection, schedule: Q04DX003 (ip), vehicle: saline): 171 % of control; T/C (dose: 8.0 mg/kg/injection, schedule: Q08DX002 (ip), vehicle: saline): 208 % of control

Question: Which results are given for `C1CC[N-]CC1.C1CC[N-]CC1.N#C[S-].N#C[S-].[Cu]`?
Answer: T/C (dose: 2.5 mg/kg/injection, schedule: Q04DX003 (ip), vehicle: saline with Tween-80): 110 % of control; T/C (dose: 5.0 mg/kg/injection, schedule: Q04DX003 (ip), vehicle: saline with Tween-80): 93 % of control; T/C (dose: 10.0 mg/kg/injection, schedule: Q04DX003 (ip), vehicle: saline with Tween-80): 93 % of control

Question: Which T/C (dose: 10.0 mg/kg/injection, schedule: Q02DX009 (ip), vehicle: Klucel (hydroxypropylcellulose) (HPC)) does the source give for `C[C@]12C=CC(=O)C=C1CC[C@@H]1[C@@H]2[C@@H](O)C[C@@]2(C)[C@H]1CC[C@]2(O)C(=O)CO` here?
Answer: Its T/C is 91 % of control.

Question: What about the T/C (dose: 20.0 mg/kg/injection, schedule: Q02DX009 (ip), vehicle: Klucel (hydroxypropylcellulose) (HPC)) of the same compound?
Answer: Its T/C is 100 % of control.

Question: And the T/C (dose: 40.0 mg/kg/injection, schedule: Q02DX009 (ip), vehicle: Klucel (hydroxypropylcellulose) (HPC))?
Answer: The T/C was 96 % of control.

Question: What about the T/C (dose: 80.0 mg/kg/injection, schedule: Q02DX009 (ip), vehicle: Klucel (hydroxypropylcellulose) (HPC)) of the same compound?
Answer: The T/C was 103 % of control.

Question: And the T/C (dose: 160.0 mg/kg/injection, schedule: Q02DX009 (ip), vehicle: Klucel (hydroxypropylcellulose) (HPC))?
Answer: The T/C was 109 % of control and 115 % of control.

Question: And the T/C (dose: 320.0 mg/kg/injection, schedule: Q02DX009 (ip), vehicle: Klucel (hydroxypropylcellulose) (HPC))?
Answer: The T/C was 92 % of control.

Question: Which T/C (dose: 1.25 mg/kg/injection, schedule: Q01DX009 (ip), vehicle: Klucel (hydroxypropylcellulose) (HPC)) does the source give for `c1ccc2c(NCCCCCCNc3c4ccccc4nc4ccccc34)c3ccccc3nc2c1` here?
Answer: Its T/C is 124 % of control.

Question: And the T/C (dose: 10.0 mg/kg/injection, schedule: Q01DX009 (ip), vehicle: Klucel (hydroxypropylcellulose) (HPC))?
Answer: The T/C was 174 % of control.

Question: What about the T/C (dose: 20.0 mg/kg/injection, schedule: Q01DX009 (ip), vehicle: Klucel (hydroxypropylcellulose) (HPC)) of the same compound?
Answer: The T/C was 179 % of control.

Question: How did the T/C (dose: 100.0 mg/kg/injection, schedule: Q04DX003 (ip), vehicle: saline with Tween-80) turn out when `CC12C=CC(C=C1)C(O)C2` (stereo unspecified) was run?
Answer: The T/C was 112 % of control.

Question: And the T/C (dose: 200.0 mg/kg/injection, schedule: Q04DX003 (ip), vehicle: saline with Tween-80)?
Answer: Its T/C is 93 % of control.

Question: And the T/C (dose: 400.0 mg/kg/injection, schedule: Q04DX003 (ip), vehicle: saline with Tween-80)?
Answer: Its T/C is 101 % of control.

Question: Which results are given for `O=C(O)CC(=O)O.[NH-]CC[NH-].[Pt+2]`?
Answer: T/C (dose: 3.12 mg/kg/injection, schedule: Q01DX009 (ip), vehicle: dextrose): 119 % of control; T/C (dose: 12.5 mg/kg/injection, schedule: Q01DX009 (ip), vehicle: dextrose): 171 % of control; T/C [2]: 197 % of control and 214 % of control

Question: `NC(N)=NC(N)=Nc1ccc(S(=O)(=O)O)cc1` was tested. Which T/C [4] did it give?
Answer: Its T/C is 94 % of control.

Question: And the T/C [5]?
Answer: The T/C was 104 % of control.

Question: And the T/C [6]?
Answer: The T/C was 98 % of control.
